Results taken from the NIST ThermoML archive (doi:10.1016/j.jct.2017.03.019).
Numbers after ± are expanded uncertainties. Each block holds one compound with its values, some of them ahead of it.

Columns and labels:
[1] = wn = mass fraction of the nth substance listed; conditions: 298.2 K, 100 kPa, Liquid, Vibrating tube method
[2] = refractive index (Na D-line) (dimensionless); wn = mass fraction of the nth substance listed; conditions: 298.2 K, 100 kPa, Liquid, Standard Abbe refractometry
[3] = 298.2 K; 101.33 kPa; Liquid; Vibrating tube method
[4] = refractive index (Na D-line) (dimensionless); conditions: 298.2 K; 101.33 kPa; Liquid; Standard Abbe refractometry

mass density ([1]; w2 = 0.3523): 874.34 ± 3.6 kg/m3
mass density ([1]; w2 = 0.8131): 968.42 ± 3.7 kg/m3
refractive index ([2]; w2 = 0.3523): 1.3812 ± 0.0036
refractive index ([2]; w2 = 0.8131): 1.3513 ± 0.0036
SMILES: CCC(C)O (stereo not given) [butan-2-ol] + O

mass density [3]: 802.49 ± 0.95 kg/m3
refractive index [4]: 1.3952 ± 0.0016
SMILES: CCC(C)O (stereo not given) [butan-2-ol]

mass density ([1]; w2 = 0.1177): 827.45 ± 3.5 kg/m3
mass density ([1]; w2 = 0.9477): 989.77 ± 3.8 kg/m3
refractive index ([2]; w2 = 0.1177): 1.3992 ± 0.0036
refractive index ([2]; w2 = 0.9477): 1.3377 ± 0.0036
SMILES: CCCC(C)O (stereo not given) [pentan-2-ol] + O

mass density [3]: 805.37 ± 1.9 kg/m3
refractive index [4]: 1.4044 ± 0.0032
SMILES: CCCC(C)O (stereo not given) [pentan-2-ol]

mass density ([1]; w2 = 0.2058): 844.74 ± 3.5 kg/m3
mass density ([1]; w2 = 0.9265): 986.16 ± 3.8 kg/m3
refractive index ([2]; w2 = 0.2058): 1.3885 ± 0.0036
refractive index ([2]; w2 = 0.9265): 1.3402 ± 0.0036
SMILES: CCCCO [butan-1-ol] + O

mass density [3]: 805.81 ± 1.9 kg/m3
refractive index [4]: 1.3973 ± 0.0032
SMILES: CCCCO [butan-1-ol]

mass density [3]: 997.17 ± 1.9 kg/m3
refractive index [4]: 1.3325 ± 0.0032
SMILES: O [water]
